Test results as given in PMC8445441, “Elucidating the mechanism by which synthetic helper peptides sensitize Pseudomonas aeruginosa to multiple antibiotics” (PLoS Pathogens, 2021).

Columns and labels:
P. aeruginosa PAO1 = assay: Cutaneous mouse abscess infection model; type: in vivo; conditions: BALB/c mice, PAO1 2×10^7 CFU; single dose; azithromycin 7.5, chloramphenicol 8, doxycycline 2 mg/kg, each with D-11 10 mg/kg; 20 h post infection
Method: The mouse cutaneous abscess infection model was performed as previously described with minor modifications. 8-week-old specific-pathogen-free female BALB/c mice were used in the experiment. Before infection, 80 μL of 7.5% chloral hydrate were injected intraperitoneally to anaesthetize the mice. PAO1 was grown to an OD600 of 1.0. The bacteria were collected by centrifugation and washed twice with saline. Then the bacteria were resuspended in saline at a concentration of 4 × 10^8 CFU/ml. 50 μL of the bacterial suspension were injected into the right side of the dorsum of the mouse, resulting in 2 × 10^7 CFU per mouse. 30 minutes after the infection, 50 μL saline alone or containing indicated concentration of antibiotic or 10 mg/kg D-11, or a combination of antibiotic and 10 mg/kg D-11 was injected into the infected area. 20 hours post infection, the skin abscess was excised and subjected to homogenization in saline. The live bacteria numbers were determined by plating.

PAO1 in human blood = assay: Antimicrobial activity in blood (ex vivo bacteremia model); type: cell-based, Pseudomonas aeruginosa; conditions: for duration of control of the infection in blood: human blood infected with PAO1, in the presence of 4 μM D-11; for antibacterial effect in blood (in words): human blood, 5×10^7 CFU/mL PAO1, antibiotic combined with D-11 (4 μM), 4 hours
Method: Human blood of healthy individuals was obtained from Sanquin (certified Dutch organization responsible for meeting the need in healthcare for blood and blood products, https://www.sanquin.nl/) and was infected with 5×10^7 CFU/mL of PAO1. The blood was distributed at 0.5 mL in 2 mL Eppendorf tubes and treated with the antibiotics and peptides at the indicated concentrations at 37 °C for 4 hours. The samples were decimal serially diluted in PBS. Drops of 10 μL of each dilution on LB agar to track the development of infection. The experiment was performed in triplicate.

| SMILES | reductions of CFU in the abscess compared to each individual antibiotic (P. aeruginosa PAO1) | duration of control of the infection in blood (PAO1 in human blood) | antibacterial effect in blood (in words) (PAO1 in human blood) |
| --- | --- | --- | --- |
| CC[C@H]1OC(=O)[C@H](C)[C@@H](O[C@H]2C[C@@](C)(OC)[C@@H](O)[C@H](C)O2)[C@H](C)[C@@H](O[C@@H]2O[C@H](C)C[C@H](N(C)C)[C@H]2O)[C@](C)(O)C[C@@H](C)CN(C)[C@H](C)[C@@H](O)[C@]1(C)O [Azithromycin] | 2–3 log10 | more than 24 hours | – |
| O=C(N[C@H](CO)[C@H](O)c1ccc([N+](=O)[O-])cc1)C(Cl)Cl [Chloramphenicol] | 2–3 log10 | more than 24 hours | best antibacterial effects |
| CC[C@H]1OC(=O)[C@H](C)[C@@H](O[C@H]2C[C@@](C)(OC)[C@@H](O)[C@H](C)O2)[C@H](C)[C@@H](O[C@@H]2O[C@H](C)C[C@H](N(C)C)[C@H]2O)[C@](C)(OC)C[C@@H](C)C(=O)[C@H](C)[C@@H](O)[C@]1(C)O [Clarithromycin] | – | more than 24 hours | – |
| CO[C@H]1[C@H](OC(=O)c2ccc(C)[nH]2)[C@H](O)[C@@H](Oc2ccc3c(O)c(NC(=O)c4c[nH]c(C(=O)Nc5c(O)c6ccc(O[C@H]7OC(C)(C)[C@@H](OC)[C@H](OC(=O)c8ccc(C)[nH]8)[C@@H]7O)c(C)c6oc5=O)c4C)c(=O)oc3c2C)OC1(C)C [Coumermycin A1] | – | – | relative week antibacterial effects |
| C[C@H]1c2cccc(O)c2C(=O)C2=C(O)[C@]3(O)C(=O)C(C(N)=O)=C(O)[C@@H](N(C)C)[C@@H]3[C@@H](O)[C@@H]21 [Doxycycline] | 2–3 log10 | more than 24 hours | best antibacterial effects |
| CO[C@@H]1[C@@H](OC(N)=O)[C@@H](O)[C@H](Oc2ccc3c(O)c(NC(=O)c4ccc(O)c(CC=C(C)C)c4)c(=O)oc3c2C)OC1(C)C [Novobiocin] | – | – | relative week antibacterial effects |
| CO[C@H]1/C=C/O[C@@]2(C)Oc3c(C)c(O)c4c(O)c(c(/C=N/N5CCN(C)CC5)c(O)c4c3C2=O)NC(=O)/C(C)=C\C=C\[C@H](C)[C@H](O)[C@@H](C)[C@@H](O)[C@@H](C)[C@H](OC(C)=O)[C@@H]1C [Rifampicin] | – | – | best antibacterial effects |
